The results in this text go back to patent US4359468A, “Antiallergic N-[4-(indolyl)-piperidino-alkyl]-benzimidazolones” (Boehringer Ingelheim Ltd., priority 1981, dated 1982).

Structures are written as SMILES.

The test system of assay [1] is histamine-induced blueing in rat skin. Briefly: In Vivo Inhibition of Histamine-Induced Blueing in Rat Skin. The settings on record: po, male CD rats, 50 percent reduction in blue-spotted area, p.o., 3 μg histamine intradermal, read-out: ED50 Antihist. The protocol: In Vivo Inhibition of Histamine-Induced Blueing in Rat Skin
Male CD rats (150-160 gm) were divided into two groups. The hair was removed from an area of the back with an electric clipper. An untreated control group received 10 ml/kg, p.o. of normal saline in 1 percent acacia. Experimental groups received test compound suspended in 1 percent acacia at a volume of 10 ml/kg, p.o. Two percent Evans Blue dye in normal saline in a volume of 0.5 ml was administered intravenously to all animals. Twenty minutes following administration of the test compound or vehicle, 3 μg of histamine diphosphate in 0.1 ml of normal saline was injected intradermally in two sites of the shaved area on the backs of the rats. Fifteen minutes following histamine injection, all rats were killed by CO2 asphyxiation.
An incision was made along the spine and the skin cleanly separated. The dorsal skin was reflected and the diameters of the blue-spotted wheals were measured. The area in square millimeters was determined for each resulting blue spot and the mean area for the control and test groups were calculated. The mean area for the control group was considered as a 100 percent response. Test group results were expressed as a percentage change from control. An ED50 (i.e., defined as a 50 percent reduction in blue-spotted area) was determined by linear regression analysis.

The subject of assay [2] is mast cells. Description: Inhibition of Peritoneal Mast Cell Degranulation (MCD) in Rats Passively Sensitized with OA Antiserum or Induced by Compound 48/80. Format: in vivo, rat. To be noted: male CD rats, OA antiserum or Compound 48/80, i.v., i.p. or p.o., route not given. Here is the method:
Inhibition of Peritoneal Mast Cell Degranulation (MCD) in Rats Passively Sensitized with OA Antiserum or Induced by Compound 48/80
This test was adapted from that described by Mota, I. and Osler, A. G. "Mast Cell Degranulation,"
Male CD rats (150-160 gm) were divided into 5 groups as follows:
Group I: Nonspecific MCD control (3 rats)
Group II: Positive MCD control (5 rats)
Groups III, IV, V: Positive MCD following test compound (5 rats each)
Group I was injected intraperitoneally with 3 ml of normal rat serum. Groups II through V were intraperitoneally administered 3 ml of an antiserum predetermined to produce a 60-80 percent greater degranulation than normal rat serum. Eighteen to 24 hours later, test compound was administered (i.e., i.v. immediately, i.p. 5 minutes, or p.o. 20 minutes) before i.p. antigen challenge with 0.5 mg/kg of 2×crystalline ovalbumin in a concentration of 0.005 percent saline. Fifteen minutes after challenge, the rats were killed by asphyxiation with CO2. […]
Microscopic slides of the mesentery were prepared and analyzed by a modification of the method by Fugner, A. "An Improved Method for the Study of Reaginmediated Mast Cell Degranulation in Rats," Experientia, 29: 708, 1973, […]
The results were calculated and expressed as percent of inhibition of degranulation as follows: [formula]

Assay [3] relates to passive cutaneous anaphylaxis skin reaction in rats (anti-OA reaginic serum, ovalbumin challenge). Briefly: Rat Passive Cutaneous Anaphylaxis (PCA) Test. Format: in vivo. To be noted: male CD rats, 50 percent reduction in area, i.v. or oral, route not given. Here is the method: Rat Passive Cutaneous Anaphylaxis (PCA) Test
The test used was essentially that described by El-Azab, J. and Stewart, P. B., "Pharmacological Profile of a New Anti-Allergic Compound PRD-92-EA." Int. Archs. Allergy Appl. Immunol. 55: 350-361, 1977;
A dilution of anti-OA reaginic serum was used to give reproducible skin reactions with diameters between 10-15 mm in unsensitized rats. This anti-serum dilution was injected in a volume of 0.1 ml intradermally on each side of the shaved backs of male CD rats (150-160 gm) before antigen challenge. Test compounds which were evaluated by the intravenous (i.v.) route were dissolved in water, and mixed with 0.5 ml of a solution containing 5 mg ovalbumin and 2 percent Evans Blue and administered at a volume of 1 ml/kg. […]
Thirty minutes after antigenic challenge, i.e. for either intravenous or oral administration, the rats were killed by CO2 asphyxiation. A midline incision was made along the spine and the skin was reflected and the diameter of the blued areas were measured in millimeters. The mean area in square millimeters was determined for each spot and the mean circular area of that test group was calculated. The mean area in square millimeters of an untreated control group was considered as a 100 percent response, and the results of the test compound groups were expressed as a percent change from the control values. […]

Consider `O=c1[nH]c2ccccc2n1CCCN1CCC(c2c[nH]c3ccccc23)CC1` [Example 4, N-{3-[4-(3-indolyl)-piperidino]-propyl}-benzimidazolone], for which the ED50 (commonly the dose that gives a 50% effect, or the effect in half of the subjects) is 8.7 mg/kg in assay [1]; 3 to 6.4 mg/kg in assay [2] (Rattus norvegicus, Mast cell); 1.6 mg/kg in assay [3].

As to `O=c1[nH]c2ccccc2n1CCCN1CCN(C(c2ccccc2)c2ccccc2)CC1` [Oxatomide], the values for the ED50 in assay [1] and in assay [3] were 8.1 mg/kg and 8.3 mg/kg, respectively. In assay [2], the “ED50 MCD” value is reported as “neg”.
